Assay results taken from patent publication US12624022B2, “Heterocyclic immunomodulators as PDL1 checkpoint inhibitor” (Janssen Sciences Ireland Unlimited Company, priority 2019, dated 2026).

How the values were obtained:
PD-1/PD-L1 = PD-1/PD-L1 (Homo sapiens, UniProt Q9NZQ7); test: PD-1/PD-L1 biochemical protein-protein interaction assay (ALPHA); format: binding; details: Table 1a; 5 nM His tagged PD-L1, 5 nM biotinylated PD-1, 2 hours at 25° C.; read-out: ALPHA-LISA IC50
Procedure: Compounds were tested in protein-protein interaction assay to determine if they can specifically block the interaction between the extracellular domains of PD-1/PD-L1. Binding of the protein pairs is measured using a bead based amplified luminescent proximity homogeneous assay (ALPHA) platform. Binding of each protein pair results in proximity of the donor and acceptor beads which leads to an increase in ALPHA signal. Assays are performed in 50 mM Tris (pH 7.4), 0.0015% Triton X-100, 0.1% BSA. Final protein concentration in the assays were 5 nM (His tagged PD-L1), 5 nM (biotinylated PD-1), 10 μg/ml ALPHA assay acceptor beads, 10 μg/ml ALPHA assay donor beads. After an assay reaction time of 2 hours at 25° C., binding was measured. The specificity of the binding was determined by testing the compounds in an assay with an irrelevant protein that is both His tagged and biotinylated. The final protein concentration used in the assay was 5 nM, 10 μg/ml ALPHA assay acceptor beads, 10 μg/ml ALPHA assay donor beads. After an assay reaction time of 2 hours at 25° C., binding was measured. IC50 values were calculated from the fit of the dose-response curves to a four-parameter equation.

[1] = across the 27 clinical trials analyzed (Tie Y et al., 2016); cited from earlier work

PD-1/PD-L1, sequence (Q9NZQ7 19-238 limits assumed): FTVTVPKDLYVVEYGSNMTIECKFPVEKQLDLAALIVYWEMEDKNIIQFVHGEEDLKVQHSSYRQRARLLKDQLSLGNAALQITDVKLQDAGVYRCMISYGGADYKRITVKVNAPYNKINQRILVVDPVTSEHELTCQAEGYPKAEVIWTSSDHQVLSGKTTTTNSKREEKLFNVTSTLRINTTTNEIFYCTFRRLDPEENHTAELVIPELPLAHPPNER

| IC50 (PD-1/PD-L1) [nM] | Molecule | objective response rate (ORR) [1] [%] |
| --- | --- | --- |
| 200 | N#Cc1cccc(COc2cc(OCc3cccn(-c4ccc5c(c4)OCCO5)c3=O)c(Cl)cc2CN[C@H](CO)C(=O)O)c1 [Compound 202, (5-chloro-2-((3-cyanobenzyl)oxy)-4-((1-(2,3-dihydrobenzo[b][1,4]dioxin-6-yl)-2-oxo-1,2-dihydropyridin-3-yl)methoxy)benzyl)-D-serine] | – |
| – | Opdivo: Opdivo® (Nivolumab), given as example of PD-L1/PD-1 antagonist therapy validated in clinical trials | 26 |
